In US20230220353A1, “IN VITRO LIVER ORGANOIDS AND MINI-BILE DUCT MODELS OF BILIARY ARTRESIA AND APPLICATIONS THEREOF” (priority 2022, published 2023):

What was measured:
human liver organoids [1] = assay: Immunostaining of human liver organoids for differentiation, polarity, cytoskeleton and β-amyloid markers; format: cell-based
Protocol: Hepatocytic differentiation in human organoids was assessed by immuno-fluorescence for hepatocyte maker (HNF4A). Organoids in the Matrigel were washed with PBS (phosphate-buffered saline) before being fixed with 4% paraformaldehyde at room temperature for 20 minutes. The organoids were permeabilized with Triton X-100 (0.5% in PBS) for 20 minutes and blocked with 3% bovine serum albumin (BSA, Sigma-Aldrich) in PBS with 0.05% Triton X-100 (PBST) for 30 minutes at room temperature. The organoids were then incubated in primary antibodies (diluted in PBST with 3% BSA) at 4° C. overnight. After PBST washes (5 minutes for 3 times), organoids were incubated in secondary antibodies (diluted in PBST with 3% BSA) for 2 hours at room temperature. Afterward, the organoids were rinsed with PBS 3 times and incubated with DAPI solution for 30 minutes at room temperature. The organoids were rinsed with PBS (5 minutes for 3 times). Primary and secondary antibodies used in this examples were anti-ZO-1 (1:50, RA231621, Thermo Fisher), anti-CK19 (1:200, ab220193, Abcam), anti-F-actin (1:500, A22287, Thermo Fisher), anti-beta-amyloid (1:200, SIG-39220, 4G8, BioLegend), anti-HNF4A (1:50, ab201460, Abcam), Alexa Fluor 488 (1:500, A11008, Invitrogen) and Alexa Fluor 594 (1:500, A11032, Invitrogen).
(§1) Organoids were imaged on a laser confocal microscopy (Leica) equipped with a 20× dry objective and a 63× oil-immersion objective. Images were analyzed using ImageJ software. For quantification of the number of cilia from each group, the organoids were imaged using confocal microscopy (0.8 μm Z-axis interval, 40 μm in thickness). Maximum intensity projection was performed for visualization of the cilia in the organoids. FIG. 3A are representative images of control and day-2 biliatresone-treated human liver organoids stained for HNF4A (green). Nuclei were stained with DAPI (blue). The percentage of HNF4A positive cells in control and day-2 biliatresone-treated organoids were determined by counting the total number of cells and HNF4A+ cells of the organoids. Number of organoids counted in each group=3; *, p<0.05, student's t-test; error bars indicated the standard deviation.
To test if biliatresone induces apical-basal polarity defects in human organoids, the control group and biliatresone-treated organoids were stained with anti-ZO-1 antibody. FIG. 4 depicts the result of immunostaining of control and day-2 biliatresone-treated human liver organoids for ZO-1 (green) and CK19 (red). Nuclei were stained with DAPI (blue).
To investigate if biliatresone also induces cytoskeleton defects and Aβ accumulation in human organoids, Immunostaining was carried out for the control and day-2 biliatresone-treated human liver organoids for cytoskeleton protein F-actin (green) and β-amyloid (red). Nuclei were stained with DAPI (blue).
The percentages of β-amyloid positive cells in control and day-2 biliatresone-treated organoids were determined by counting total number of cells and β-amyloid+ cells of the organoids. Number of organoids counted in each group=3; *, p<0.05, student's t-test; error bars indicated the standard deviation.

human liver organoids [2] = assay: Growth and morphology of human liver organoids (Hematoxylin and Eosin staining); format: cell-based; conditions: 2 μg/ml biliatresone
Protocol: Briefly, liver biopsy was minced and digested in gentle MACS-C Tube with 5 ml digestion medium (Multi Tissue Dissociation Kit 1), filtered (70 μm and 30 μm) and sorted by human CD326 (EpCAM) magnetic beads. CD326 positive cells were mixed with Matrigel (50,000 cells in 50 μl) and added to each well of a four-well culture plate (Nunc™ 4-Well Dishes). After Matrigel solidification, organoid medium (Advanced DMEM/F12 supplemented with 1% Penicillin/Streptomycin (Invitrogen), 250 ng/ml Amphotericin B (GIBCO), […], 1% N2 and 1% B27(GIBCO), 1.25 mM N-Acetylcysteine (Sigma), 10 nM gastrin (Sigma), and the growth factors: 50 ng/ml mEGF (Peprotech), 100 ng/ml FGF10 (Peprotech), 25 ng/ml HGF (Peprotech), 10 mM Nicotinamide (Sigma), 5 μM A83.01 (Tocris), and 10 μM FSK (Tocris), 25 ng/ml Noggin (Peprotech), 500 ng/ml R-Spondin 1 (R&D), 100 ng/ml Wnt3a (R&D), 10 μM Y27632 (Sigma Aldrich)) was added for organoid culturing. The medium was changed every three days. After culturing for 5 days, biliatresone solution (2867, Axon MEDCHEM; 2 μg/ml in DMSO) was added into the medium and the organoids were cultured for different periods for subsequent analysis. For the untreated control culture, DMSO (same volume as biliatresone) was added to the culture. FIG. 1 is a schematic diagram of the generation of biliatresone treated human liver organoids. […]

human liver organoids [3] = assay: Ciliated cholangiocyte count (pericentrin / acetylated α-tubulin immunostaining); format: cell-based
Protocol: as §1
To investigate if biliatresone disturbed ciliogenesis in human organoids, control organoids and biliatresone-treated organoids were immuno-stained for ciliary proteins Pericentrin (PCNT) and alpha-tubulin. […] The percentages of ciliated cells in control and biliatresone-treated organoids were determined by counting total number of cells and ciliated cells of the organoids. Number of organoids counted in each group=3; *, p<0.05, student's t-test; error bars indicated the standard deviation.

human liver organoids [4] = assay: FITC-labeled dextran diffusion test (tight junction barrier integrity); format: cell-based; conditions: day-2 treated organoids, after 10 minutes of incubation; not observed in control
Protocol: In order to determine the integrity of liver organoids, a FITC-labeled dextran diffusion test was carried out to investigate if biliatresone-treated organoids has defects in the tight junction barrier for solutes. […] The fluorescent intensity of liver organoids was imaged using laser confocal microscopy at 10 and 30 minutes.

human cholangiocytes = assay: Cilia mechano-sensory calcium influx assay in mini-bile duct under shear flow (Calbryte 520); format: cell-based; conditions: 2 μg/ml for 5 days, shear flow 1 dyne/cm2, vs untreated cholangiocytes
Protocol: The organoids were released from the Matrigel by cold Advanced DMEM. The organoid pellets were obtained by centrifugation at 300 g, 3 minutes. Afterwards, the organoids were digested for 5 minutes at 37° C. via 1 mL of TrypLE Express Enzyme (1×). About 5,000 of organoid cells were seeded into each channel of the Matrigel coated 6-channel ibidi microfluidic chips (80607, ibidi), and the microfluidic chips were incubated at 37° C. in incubator. At day 3, monoloayer of cholangiocytes was formed representing the mini-bile duct with the luminal side facing the medium and the basal side facing the bottom of the microfluidic chips. To prepare for the calcium influx measurement, cholangiocyte monolayer was first incubated with 5 μM of Calbryte 520-AM (ATT) (prepared in Hanks' balanced salt solution, HBSS) for 1 hour at 37° C. Then, the cholangiocytes were washed with HBSS (5 minutes for 3 times). […] Time-lapse images were acquired for green fluorescence for 20 seconds (1-second intervals and 10 milliseconds exposure time) using Nikon Ti2e microscope (Nikon, Japan). […]
On day 3 post confluence, cholangiocytes were incubated with 5 μM of Calbryte 520-AM (ATT) (prepared in Hanks' balanced salt solution, HBSS) for 1 hour at 37° C. […] Time-lapse images were acquired for green fluorescence for 20 seconds (1-second intervals and 10 milliseconds exposure time) using Nikon Ti2e microscope (Nikon, Japan). […]

MDR1 = MDR1 (Homo sapiens, UniProt P08183); assay: MDR1 activity assay (MDR1-mediated Rhodamine 123 transport assay); conditions: day-2 biliatresone-treated organoids, Rhodamine 123 100 μM, 30 minutes
MDR1, sequence (P08183 whole entry): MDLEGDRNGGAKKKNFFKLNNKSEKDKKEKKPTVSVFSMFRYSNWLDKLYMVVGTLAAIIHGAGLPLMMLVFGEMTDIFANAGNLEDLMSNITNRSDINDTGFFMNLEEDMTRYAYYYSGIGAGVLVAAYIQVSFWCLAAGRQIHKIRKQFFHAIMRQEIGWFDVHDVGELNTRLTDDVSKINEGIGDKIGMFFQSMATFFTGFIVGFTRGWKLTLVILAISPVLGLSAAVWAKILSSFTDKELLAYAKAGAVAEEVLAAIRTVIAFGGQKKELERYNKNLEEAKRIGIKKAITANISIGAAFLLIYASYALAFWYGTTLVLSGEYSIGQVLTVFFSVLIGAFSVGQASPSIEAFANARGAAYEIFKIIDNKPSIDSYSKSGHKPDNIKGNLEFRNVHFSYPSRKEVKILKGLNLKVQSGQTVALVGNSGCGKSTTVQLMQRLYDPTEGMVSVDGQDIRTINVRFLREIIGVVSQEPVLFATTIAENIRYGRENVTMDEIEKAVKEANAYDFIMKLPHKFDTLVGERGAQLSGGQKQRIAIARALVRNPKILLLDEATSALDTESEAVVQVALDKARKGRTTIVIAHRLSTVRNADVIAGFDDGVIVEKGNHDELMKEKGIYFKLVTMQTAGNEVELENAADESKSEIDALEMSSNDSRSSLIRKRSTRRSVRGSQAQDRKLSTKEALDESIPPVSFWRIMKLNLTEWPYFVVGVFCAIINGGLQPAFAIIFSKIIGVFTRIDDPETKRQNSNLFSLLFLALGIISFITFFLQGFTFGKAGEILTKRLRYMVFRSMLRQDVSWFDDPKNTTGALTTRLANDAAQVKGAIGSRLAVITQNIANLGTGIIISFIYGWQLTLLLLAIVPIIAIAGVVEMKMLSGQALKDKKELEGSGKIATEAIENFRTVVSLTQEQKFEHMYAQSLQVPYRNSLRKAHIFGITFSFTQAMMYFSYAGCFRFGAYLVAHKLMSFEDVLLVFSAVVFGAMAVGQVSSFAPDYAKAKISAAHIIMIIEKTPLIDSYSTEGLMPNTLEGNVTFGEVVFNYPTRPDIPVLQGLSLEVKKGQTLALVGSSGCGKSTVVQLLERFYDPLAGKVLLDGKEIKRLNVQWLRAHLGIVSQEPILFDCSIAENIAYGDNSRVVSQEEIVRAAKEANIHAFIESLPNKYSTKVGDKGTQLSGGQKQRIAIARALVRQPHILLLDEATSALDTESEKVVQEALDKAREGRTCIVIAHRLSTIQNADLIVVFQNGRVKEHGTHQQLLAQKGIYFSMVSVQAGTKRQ
Protocol: A MDR1 activity assay (MDR1-mediated Rhodamine 123 (R123) transport assay) was then performed to investigate the defective cholangiocyte differentiation of biliatresone-treated organoids.
Afterward, the liver organoids were washed with PBS and incubated in culture medium containing Rhodamine 123 (100 μM) at 37° C. for 30 minutes. After washing with PBS, the fluorescence of liver organoids was then visualized by laser confocal microscopy (Leica) immediately (as 0 minutes) and after 30 minutes incubation in culture medium.

GSH = GSH level in liver organoids; format: cell-based, human
Protocol: GSH levels were measured in liver organoids from 0 to 48 hours without (Ctrl) or with biliatresone. Data was obtained from 3 wells in each group; *, p<0.05, student's t-test; error bars indicated the standard deviation.

SOX17 = SOX17 mRNA expression by real-time PCR normalized to GAPDH; format: cell-based, human; conditions: day-2 treated organoids vs control
Description: Gene expressions in liver ductal organoids with or without biliatresone treatment for 2 day and 5 days were investigated. mRNA expression levels were characterized by real-time PCR for SOX17 normalized to GAPDH.

[5] = day-2 treated organoids vs control

With `C=C(C(=O)c1c(OC)cc2c(c1OC)OCO2)c1ccccc1O` [biliatresone, Biliatresone] the “percentage of Aβ positive cells” value (human liver organoids [1]; day-2 treated culture vs control culture (no Aβ positive cells in control), p<0.05) was “significantly higher”, the ZO-1 immuno-reactivity (human liver organoids [1]; [5]) was “markedly reduced” and the “expression of cholangiocyte MDR1” value (human liver organoids [1]; [5]) was “drastically reduced”. For the same molecule, the “percentage of HNF4A+ cells in organoids” value (human liver organoids [1]; day-2 treated organoids, 2 μg/ml, Mean±SD, n=3, control 14.9±2%) was 57.3±8%, the F-actin localization (human liver organoids [1]; day-2 treated organoids, control: apical side only) was “both the apical and the basal sides” and the “expression of cholangiocyte marker CK19” value (human liver organoids [1]; treated organoids vs control) was “drastically reduced”. The organoid morphology (human liver organoids [2]; day 5, vs DMSO control) was “not well-expanded”, the organoid diameter (human liver organoids [2]; day 5, control organoids 25-100 μm) was 5-20 μm and the “percentage of ciliated cells” value (human liver organoids [3]; day 1 of treatment, Mean±SD, control 10.7±5%) was 4.2±2%. For the same molecule, the “percentage of ciliated cells” value (human liver organoids [3]; day 3 of treatment) was 0%, the “FITC-dextran (10 kDa) localization” value (human liver organoids [4]) was “localize in the lumen” and the “extent of calcium influx” value (human cholangiocytes) was “significantly reduced”. For the same molecule, the “percentage of evoked cells after perfusion stimulation” value (human cholangiocytes) was “significantly reduced”, the “R123 transport across the organoid membrane” value (MDR1) was “very inefficient” and the GSH level (GSH; 6, 24 and 48 hours of treatment) was “restored”. For the same molecule, the GSH level (GSH; 3 hours of treatment vs control) was “small but significant drop” and the SOX17 expression (SOX17) was “small but significant drop”.
